Experimental data taken from US20200123127A1, “REMOVAL OF SENESCENCE-ASSOCIATED MACROPHAGES” (EVERON BIOSCIENCES, INC., priority 2016, published 2020).
Where two headings read alike, the source gives them in different places.

Tests used:
[1] = tested on: chronologically aging mice; assay: Survival and frailty index of chronologically aging mice; type: in vivo, mouse; conditions: for survival rates vs control groups: OT-82: after 6 courses, 111 weeks of age, asenins: treated weeks 77-97, at 112 weeks of age
Method: FIG. 11. OT-82 effects on survival and frailty index of old mice. (A) Male and female mice were treated with OT-82 or with vehicle alone as a negative control. Survival was measured over the course of six treatments.
FIG. 12. Effects of asenins TA-3899 and TA-4812 on survival and frailty index of old mice. Results are provided on a background of FI of mice of the similar age, aged normally without any treatments (black color). Difference between FI of males receiving 3899 and intact mice is statistically significant (p=0.02).
Frailty Index (FI) was determined for individual mice as described previously (Antoch et al. Aging. 2017; 9: 1-12) using a 26 week-old group as a “young mouse” reference. For each mouse, various parameters were measured. These parameters include non-invasive measurements, including age, body weight, grip strength, diastolic blood pressure, and tail blood flow. Additional blood chemistry measurements were also determined, including white blood cell count, neutrophil count, neutrophil percentage, lymphocyte percentage, monocyte percentage, eosinophil percentage, red blood cell count, hemoglobin, hematocrit, mean corpuscular volume, mean corpuscular hemoglobin, mean corpuscular hemoglobin concentration, platelet count, and mean platelet volume. For each parameter mean value and standard deviation were calculated. Animals differing by more than one standard deviation (STDEV) from mean value in any single parameter were excluded from the reference group. Values for each measured parameter were compared with corresponding values for the reference group and assigned a score. The number of deficits an individual mouse expressed was calculated as a ratio of total number of parameters measured and this value is referred to as the frailty index.
Asenins TA-3899 and TA-4812 were evaluated for their effects on survival and frailty index in a model of chronologic aging mice. Treatment lasted for 20 weeks (weeks 77-97 of age). […] Frailty index of males was measured at week 109.

[2] = tested on: adult rat dermal fibroblasts (RDF); assay: Resazurin viability assay, senescent vs proliferating rat dermal fibroblasts; type: cell-based; conditions: for IC50: Rattus norvegicus, Fibroblast
Method: Cytotoxicity of A1.1 analogs against bleomycin-induced senescent human NDFs and rat dermal fibroblasts (RDFs). Activity of analogs was assessed from dose-response curves against irradiation- or bleomycin-induced senescent and proliferating cells to calculate IC50s (uM). The fold difference of proliferating versus senescent cell IC50s was used to assess the level of specific anti-senescent activity of the compounds.
For generation senescent human neonatal dermal fibroblasts (NDFs) and adult rat dermal fibroblasts (RDFs), cells are treated at ˜10 ug/ml bleomycin for 3 days (for bleomycin-induced senescence) or irradiated once at 20 Gy using a gamma irradiator (Cs source), followed by at least 7 day recovery in fresh medium for induction of senescence. Senescent and non-senescent (proliferating) cells for each cell line are plated into 384-w plate, followed by 72 hour exposure to a dose titration of compounds. Viability measurements are estimated using the resazurin viability assay. Using GraphPad Prism 5, the IC50 values are calculated from the non-linear regression of log-transformed compound concentrations versus dose-response normalized to background and non-treated controls.

[3] = tested on: B16 melanoma lung metastasis in C57BL/6 mice; assay: Senescence-enhanced B16 lung metastasis model; type: in vivo, mouse
From the text: FIG. 4. Efficacy of A1.1 analogs in the senescence-enhanced B16 metastasis model. (A) Quantification of metastatic nodules by H&E morphometric analysis, and the resulting reduction in tumor burden (%) compared to vehicle control. (B) Quantitation morphometric analysis of lungs excised from irradiated mice treated with analogs of A1.1 post-inoculation of B16 cell intravenously, along with quantitation of morphometric analysis, are provided. (C) In vitro testing of A1.1 and analogs against the growth and viability of B16 cells, as assessed by the resazurin viability assay after 72 hour exposure to compounds compared to non-treated controls.
The role of senescent cells in the promotion of metastatic potential of cancer cells has also been described [Patent WO 2013090645 A1; Campisi, J. (2015). Cancer and Aging: Rival Demons]. […] To test the efficacy of A1.1, irradiated (11 Gy followed by bone-marrow transplantation) and non-irradiated C57BL/6 mice received B16 melanoma cells via tail vein injection were subsequently (72 hours later) administered A1.1 (20 mg/kg) intraperitoneally once a day for 5 consecutive days.
Synthesized analogs were also tested in vivo, to assess whether optimized structures are capable of showing activity against senescence-mediated B16 lung metastasis in irradiated mice (FIG. 4B). Analogs A1.1, A1.12, A1.13, A1.14, A1.15, and A1.6 were administered at 20 mg/kg intraperitoneally for 5 consecutive days. In addition to A1.1, treatment with analogs A1.12, A1.14 and A1.15 at 20 mg/kg reduced the metastatic burden in the lungs of irradiated mice by more than 2-fold.

[4] = light or radiation study, senescent RDF, irradiation-induced, 72 hour exposure, resazurin, read-out: IC50 RDFsen.irr
[5] = proliferating RDF, 72 hour exposure, resazurin, read-out: IC50 RDFprolif
[6] = senescent RDF, bleomycin-induced, 72 hour exposure, resazurin, read-out: IC50 RDFsen.bleo

| SMILES | survival rates vs control groups [1] | frailty index (FI) of males ([1]; OT-82, chronically aged mice) | survival of treated males ([1]; after 6 courses of treatment, 111 weeks of age (55% in vehicle control group)) [%] | survival of treated females ([1]; after 6 courses of treatment, 111 weeks of age (60% in vehicle group)) [%] | IC50 [2, 4] [µM] | IC50 [2, 5] [µM] | IC50 [2, 6] [µM] | reduction of B16 metastatic load in the lungs of irradiated mice vs vehicle ([3]; 20 mg/kg intraperitoneally once a day for 5 consecutive days, irradiated (11 Gy) C57BL/6 mice) | Selectivity (Prolif/Sen) ([2]; RDF, Bleomycin) | Selectivity (Prolif/Sen) ([2]; RDF, Irradiation) | IC50 ([2]; light or radiation study, RDF, senescence induction: Irradiation, read-out: Activity against Senescent Cells (IC50; uM)) [µM] | IC50 ([2]; RDF proliferating, read-out: Activity against Proliferating Cells (IC50; uM)) [µM] | IC50 ([2]; RDF, senescence induction: Bleomycin, read-out: Activity against Senescent Cells (IC50; uM)) [µM] | tumor burden in non-irradiated animals ([3]; 20 mg/kg intraperitoneally, 5 consecutive days, non-irradiated mice) |
| --- | --- | --- | --- | --- | --- | --- | --- | --- | --- | --- | --- | --- | --- | --- |
| O=C(NCCCc1cn[nH]c1)c1ccc(-c2ccncc2)c(C#Cc2ccc(F)cc2)c1 [OT-82] | no effects on survival rates | positive effects | 45 | 65 |  |  |  |  |  |  |  |  |  |  |
| COc1ccc(C2CC(=NO)c3c(SCc4ccccc4)sc(C(=O)NCc4cccc(F)c4)c3C2)cc1 (stereo not drawn) [Example A1.6, 3-(Benzylthio)-N-(3-fluorobenzyl)-4-(hydroxyimino)-6-(4-methoxyphenyl)-4,5,6,7-tetrahydrobenzo[c]thiophene-1-carboxamide] | no statistical significance |  |  |  | < 5 | > 20 | < 5 | did not show a substantial decrease |  |  |  |  |  |  |
| CCOC(=O)c1sc(SCc2ccccc2)c2c1CC(c1ccc(OC)cc1)C/C2=N\O (stereo not drawn) [Example A1.1] |  |  |  |  | < 5 | > 20 | < 10 |  | >4.6 | >4.4 | 4.5 | > 20 | 4.4 | did not affect |
